In patent US8193203B2, “Bicyclic compounds having activity at the CXCR4 receptor” (Allergan, Inc., priority 2008, dated 2012):

Target: T1, human CXCR4 receptor (Homo sapiens, UniProt P61073)
T1 construct: expressed in transfected cells
Assay: Measurement of intracellular Ca+2 responses (FLIPR), antagonism of the SDF-1α response
Type: cell-based
Settings: for IC50: HEK-Gqi5 cells stably expressing human CXCR4, Fluo-4 FLIPR, antagonism of SDF-1α 1.9 nM (EC65); for CXCR4 (% Inh): percent antagonism of SDF-1α 1.9 nM (EC65) response, HEK-Gqi5 human CXCR4 cells, value in brackets
Protocol: Measurement of Intracellular Ca^+2 Responses for CXCR4 Compounds
HEK-Gqi5 cells stably expressing the human CXCR4 receptor were utilized for these studies. The growth media for the CXCR4 receptor expressing cell line was DMEM high glucose medium supplemented with 10% fetal bovine serum (FBS), 1% antibiotic-antimycotic, 50 ug/ml hygromycin B, and 400 μg/ml geneticin. Ten thousand cells per well were plated into 384-well poly-D-lysine coated plates one day prior to use. On the day of the experiment, the cells were washed twice with Hank's Balanced Salt Solution supplemented with 20 mM hepes (HBSS/hepes buffer). The cells were then dye loaded with 2 uM Fluo-4 diluted in the HBSS/Hepes buffer and incubated at 37° C. for 40 minutes. Extracellular dye was removed by washing the cell plates four times prior to placing the plates in the FLIPR (Fluorometric Imaging Plate Reader, Molecular Devices). Ligands were diluted in HBSS/Hepes buffer and prepared in 384-well microplates. The positive control, stromal-cell derived factor-1 (SDF-1α), was diluted in HBSS/Hepes buffer with 4 mg/ml fatty acid free bovine serum albumin. Two drug additions were made by the FLIPR. The first drug addition was the test drug in concentrations ranging from 2.44 nM to 40,000 nM. After this addition, fluorescent measurements were taken. Any calcium release in response to this drug addition represents agonist activity of the compounds. The second drug addition was SDF-1α at a final concentration of 1.9 nM (EC65). Fluorescence measurements were also taken after this second drug addition and were used to determine the ability of the test compounds to antagonize the SDF-1α response. Results were expressed as EC50 and efficacy values, as well as IC50 and percent antagonism values. As controls, SDF-1α (CXCR4 agonist) and AMD3100 (CXCR4 antagonist) dose-response curves were also determined in each study.

T1 sequence (P61073 whole entry): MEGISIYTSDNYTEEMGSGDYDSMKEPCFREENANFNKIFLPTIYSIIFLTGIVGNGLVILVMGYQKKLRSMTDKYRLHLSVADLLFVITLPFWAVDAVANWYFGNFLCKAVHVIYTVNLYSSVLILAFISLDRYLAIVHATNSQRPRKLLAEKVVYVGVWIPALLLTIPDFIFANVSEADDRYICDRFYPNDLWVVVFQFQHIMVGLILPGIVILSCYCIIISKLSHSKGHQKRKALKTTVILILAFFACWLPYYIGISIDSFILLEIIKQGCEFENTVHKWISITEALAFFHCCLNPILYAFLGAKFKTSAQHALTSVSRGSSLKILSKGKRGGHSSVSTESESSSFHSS

| Compound | IC50 (values in nM) [nM] | CXCR4 (% Inh) [%] | IC50 (values given in μM) [nM] |
| --- | --- | --- | --- |
| CCN(CC)CCCNc1nc(NC2CCN(Cc3ccccc3N(C)C)CC2)c2ccccc2n1 [Compound 35, N2-(3-(Diethylamino)propyl)-N4-(1-(2-(dimethylamino)benzyl)piperidin-4-yl)quinazoline-2,4-diamine] | 330 | 90 | – |
| CCN(CC)CCCNc1nc(NC2CCN(Cc3c(OC(C)C)cccc3N(C)C)CC2)c2cc(OC)c(OC)cc2n1 [Compound 139, N˜2˜-[3-(Diethylamino)propyl]-N˜4˜-{1-[2-(dimethylamino)-6-isopropoxybenzyl]piperidin-4-yl}-6,7-dimethoxyquinazoline-2,4-diamine] | – | 93 | 1400 |
| COc1cccc(N(C)C)c1CN1CCC(Nc2nc(NCCN3CCN(C)CC3)nc3ccccc23)CC1 [Compound 154, N˜4˜-{1-[2-(Dimethylamino)-6-methoxybenzyl]piperidin-4-yl}-N˜2˜-[2-(4-methylpiperazin-1-yl)ethyl]quinazoline-2,4-diamine] | 560 | 97 | – |
| COc1cccc(N(C)C)c1CN1CCC(Nc2nc(NCC[C@@H]3CCCN3)nc3ccccc23)CC1 [Compound 115, (S)—N-4-(1-(2-(Dimethylamino)-6-methoxybenzyl)piperidin-4-yl)-N2-(2-(pyrrolidin-2-yl)ethyl)quinazoline-2,4-diamine] | 234 | 95 | – |
| COc1cccc(N(C)C)c1CN1CCC(Nc2nc(NCCNC(=O)NC(C)C)nc3ccccc23)CC1 [Compound 126, 1-(2-(4-(1-(2-(Dimethylamino)-6-methoxybenzyl)piperidin-4-ylamino)quinazolin-2-ylamino)ethyl)-3-isopropylurea] | – | 96 | 2900 |
| COc1cc2nc(NCCCN(C)C)nc(NC3CCN(Cc4c(OCCN(C)C)cccc4N(C)C)CC3)c2cc1OC [Compound 76, N4-(1-(2-(Dimethylamino)-6-(2-(dimethylamino)ethoxy)benzyl)piperidin-4-yl)-N-2-(3-(dimethylamino)propyl)-6,7-dimethoxyquinazoline-2,4-diamine] | 19 | 94 | – |
| COc1cc2nc(NC[C@H](O)CO)nc(NC3CCN(Cc4c(OCCN(C)C)cccc4N(C)C)CC3)c2cc1OC [Compound 195, 3-({4-[(1-{2-(Dimethylamino)-6-[2-(dimethylamino)ethoxy]benzyl}piperidin-4-yl)amino]-6,7-dimethoxyquinazolin-2-yl}amino)propane-1,2-diol] | 31 | 98 | – |
| COc1cccc(N(C)C)c1CN1CCC(Nc2nc(N3CCCC(C(N)=O)C3)nc3ccccc23)CC1 (stereo not drawn) [Compound 85, 1-(4-(1-(2-(Dimethylamino)-6-methoxybenzyl)piperidin-4-ylamino)quinazolin-2-yl)piperidine-3-carboxamide] | – | 93 | 4900 |
| COc1cccc(N(C)C)c1CN1CCC(Nc2nc(NCCCO)nc3ccccc23)CC1 [Compound 99, 3-(4-(1-(2-(Dimethylamino)-6-methoxybenzyl)piperidin-4-ylamino)quinazolin-2-ylamino)propan-1-ol] | 611 | 100 | – |
| N˜4˜-{1-[2-(Dimethylamino)-6-methoxybenzyl]pyrrolidin-3-yl}-N˜2˜-[3-(dimethylamino)propyl]-6,7-dimethoxyquinazoline-2,4-diamine [Compound 161] | – | 92 | 1900 |
| COc1cc2nc(NCc3ncco3)nc(NC3CCN(Cc4c(OCCN(C)C)cccc4N(C)C)CC3)c2cc1OC [Compound 204, N˜4˜-(1-{2-(Dimethylamino)-6-[2-(dimethylamino)ethoxy]benzyl}piperidin-4-yl)-6,7-dimethoxy-N2(1,3-oxazol-2-ylmethyl)quinazoline-2,4-diamine] | 47 | 92 | – |
| CN(C)CCCNc1nc(NC2CCN(Cc3c(OCCN(C)C)cccc3N(C)C)CC2)c2ccccc2n1 [Compound 228, N4-(1-(2-(Dimethylamino)-6-(2-(dimethylamino)ethoxy)benzyl)piperidin-4-yl)-N2-(3-(dimethylamino)propyl)quinazoline-2,4-diamine] | 71 | 98 | – |
| COc1cc2nc(NCCCO)nc(NC3CCN(Cc4c(OCCN(C)C)cccc4N(C)C)CC3)c2cc1OC [Compound 207, 3-({4-[(1-{2-(Dimethylamino)-6-[2-(dimethylamino)ethoxy]benzyl}piperidin-4-yl)amino]-6,7-dimethoxyquinazolin-2-yl}amino)propan-1-ol] | 69 | 99 | – |

More lines, now with the values ahead:

| IC50 (values in nM) [nM] | CXCR4 (% Inh) [%] | IC50 (values given in μM) [nM] | Compound |
| --- | --- | --- | --- |
| 380 | 97 | – | COc1cccc(N(C)C)c1CN1CCC(Nc2nc(NCC3CCN(C)C3)nc3ccccc23)CC1 (stereo not drawn) [Compound 121, N4-(1-(2-(Dimethylamino)-6-methoxybenzyl)piperidin-4-yl)-N2-((1-methylpyrrolidin-3-yl)methyl)quinazoline-2,4-diamine] |
| 169 | 98 | – | COc1cc2nc(NCCO)nc(NC3CCN(Cc4c(OCCN(C)C)cccc4N(C)C)CC3)c2cc1OC [Compound 208, 2-({4-[(1-{2-(Dimethylamino)-6-[2-(dimethylamino)ethoxy]benzyl}piperidin-4-yl)amino]-6,7-dimethoxyquinazolin-2-yl}amino)ethanol] |
| 41 | 96 | – | COc1cc2nc(NCCN(C)C)nc(NC3CCN(Cc4c(OCCN(C)C)cccc4N(C)C)CC3)c2cc1OC [Compound 229, N4-(1-(2-(Dimethylamino)-6-(2-(dimethylamino)ethoxy)benzyl)piperidin-4-yl)-N2-(2-(dimethylamino)ethyl)-6,7-dimethoxyquinazoline-2,4-diamine] |
| 66 | 94 | – | COc1cc2nc(NCCN(C)C)nc(NC3CCN(Cc4c(OCCCN(C)C)cccc4N(C)C)CC3)c2cc1OC [Compound 203, N˜4˜-(1-{2-(Dimethylamino)-6-[3-(dimethylamino)propoxy]benzyl}piperidin-4-yl)-N˜2˜-[2-(dimethylamino)ethyl]-6,7-dim ethoxyquinazoline-2,4-diamine] |
| – | 97 | 1000 | CNCC1CN(c2nc(NC3CCN(Cc4c(OC)cccc4N(C)C)CC3)c3ccccc3n2)C1 [Compound 104, N-(1-(2-(Dimethylamino)-6-methoxybenzyl)piperidin-4-yl)-2-(3-((methylamino)methyl)azetidin-1-yl)quinazolin-4-amine] |
| 45 | 94 | – | CCN(CC)CCOc1cccc(N(C)C)c1CN1CCC(Nc2nc(NCCN(C)C)nc3cc(OC)c(OC)cc23)CC1 [Compound 189, N˜4˜-(1-{2-[2-(Diethylamino)ethoxy]-6-(dimethylamino)benzyl}piperidin-4-yl)-N˜2˜-[2-(dimethylamino)ethyl]-6,7-dimethoxyquinazoline-2,4-diamine] |
| – | 88 | 1900 | CCN(CC)CCCCCNc1nc(NC2CCN(Cc3c(OC)cccc3N(C)C)CC2)c2ccccc2n1 [Compound 67, N2-(5-(Diethylamino)pentyl)-N4-(1-(2-(dimethylamino)-6-methoxybenzyl)piperidin-4-yl)quinazoline-2,4-diamine] |
| 240 | 100 | – | COc1cccc(N(C)C)c1CN1CCC(Nc2nc(NCC(C)(C)CN(C)C)nc3ccccc23)CC1 [Compound 96, N2-(3-(Dimethylamino)-2,2-dimethylpropyl)-N4-(1-(2-(dimethylamino)-6-methoxybenzyl)piperidin-4-yl)quinazoline-2,4-diamine] |
